“Also recorded” adds a separate entry of the source.
Experiments:
[1] = tested on: BALB/c mice bearing subcutaneous Neuro2a tumors; assay: Reporter gene delivery in vivo (CPP/pLuc2, luciferase in tissues); design: species or system mouse; details: for tumor specificity of reporter gene induction (luciferase levels in tissues): one iv dose of CPP/pLuc2 at CR4, plasmid 0.8 mg/kg, PEGylation rate 50%, tissues 24 h after injection
Protocol: (§1) For in vivo studies, the plasmid dose was 0.8 mg/kg per animal; the pDNA was mixed with the CPP at CR 4 in MQ water, keeping the final complex volume at 100 μL. After 40‐minute incubation, 100 μL of 10% glucose was added to the complexes and injected immediately via tail vein. The luciferase encoding plasmid used in reporter gene experiments in vivo was p‐CMV‐Luc2, marked as pLuc2 in the text, which is optimized for in vivo use.
(§2) If not stated otherwise, the PEGylation rate of peptides in the CPP/pDNA complexes was 50% in all in vivo experiments.
(§3) Mouse Neuro2a and HT1080 tumor xenografts were induced by resuspending 1 × 10^6 cells in 100 μL volume of ice‐cold un‐supplemented DMEM and implanting the cell suspension subcutaneously to the right flank of the mouse (Neuro2a: 4‐ to 6‐week‐old BALB/c; HT1080: Hsd:Athymic Nude‐Foxn1nu female, 4‐6 weeks old, Harlan, UK). The 4T1 orthotopic tumors were induced by injecting 5 × 10^4 cells in 50 μL of ice‐cold un‐supplemented RPMI into the fourth mammary fat pad of 4‐ to 8‐week‐old female BALB/c mice.
Twenty‐four hours after the intravenous administration of CPP/pLuc2 complexes, the mice bearing Neuro2a tumors were sacrificed by cervical dislocation and tissues were harvested and snap‐frozen on dry ice. The tissues were homogenized using Precellys®24‐Dual homogenization system (Bertin Technologies, France) and lyzed with 1 × Promega lysis buffer (Promega). Luminescence was analyzed as described in in vitro transfection methods section.

[2] = biological target: active human recombinant MMP-2 enzyme (Homo sapiens, UniProt P08253)
Protocol: Cleavage assay of MMP-2 cleavable CPPs that contain iRGD. The peptides were incubated with
The mixture was then analyzed with RP-UPLC (C18 reverse phase column, eluted with 20-
80% acetonitrile in water, 0.1% TFA). […] Enzyme digestion
products were confirmed by MALDI-ToF mass spectrometry.
Peptide cleavability by MMP-2
To assess the cleavability of iRGD-modified CPPs by MMP-2, the peptides were incubated
with recombinant MMP-2 (0.1 mg/ml, Calbiochem, Germany) in MQ water for 40 minutes at
37°C and analyzed with UPLC.

Neuro2a cells [3] = assay: In vitro transfection of CPP/pGL3 complexes, luciferase activity, with and without MMP-2 treatment; format: cell-based, mouse; details: CPP/pGL3 complexes CR3 incubated with MMP-2 (3.8 ng/μL) 37 °C 40 min before transfection, 24 h, Figure 1B
Protocol: CPP/pDNA nanoparticles for cell culture assays were prepared by mixing plasmid DNA (0.5 μg per well of a 24‐well plate) with CPPs, at CPP/pDNA charge ratio 3 (CR3) in MQ water with final volume of 105 μL, followed by a 40‐minute incubation at room temperature. pGL3 Control (Promega, Stockholm, Sweden) was used as the luciferase encoding plasmid since it is best suitable for in vitro use.
Twenty‐four hours before the experiment 3 × 10^4 Neuro2a cells were seeded onto 24‐well plates. Peptide/pDNA complexes at CR3 were prepared as described above. The transfection mixture was added to cells containing full media, and it made up 1/10 of the total cell medium volume during the time of transfection. Lipofectamine™ 2000 (Invitrogen, Carlsbad, CA) was used according to the manufacturer's protocol and added to the cells in serum‐containing medium. After 4‐hour incubation with the complexes, an additional 1 mL of fresh medium was added to the cells and incubated for an additional 20 hours. Thereafter, the media was removed, cells were lyzed with 100 μL 0.1% Triton X‐100 in PBS for 15 minutes at 4°C. Luciferase activity was measured using Promega's luciferase assay (Luciferase Assay System, Promega) according to the manufacturer's protocol on GLOMAX™ 96 microplate luminometer (Promega) and normalized to protein content, which was measured with the BioRad Protein Assay (Hercules, CA) according to the manufacturer's protocol.
To study the effect of MMP‐2 cleavage on transfection efficiency, active recombinant MMP‐2 enzyme (0.1 mg/mL, Calbiochem, Germany) was added to the CPP/pDNA complexes in MQ (final MMP‐2 concentration 3.8 ng/μL), and incubated at 37°C for 40 minutes prior transfection.

sc HT1080 tumors = assay: Tumor growth reduction study, HT1080 fibrosarcoma model; format: in vivo, mouse; details: nude athymic mice, sc HT1080, CPP/pshVEGF CR4, 0.8 mg/kg every other day, three doses (two iv, third ip), n = 10, compared to pshVEGF alone; Figure 3A
Protocol: as §1, §2, §3
(§4) Before treatment, the mice were assigned into six groups of 10. CPP/pshVEGF treatment for HT1080 tumor‐bearing animals was started at the first appearance of tumor growth (tumor size of approximately 100 mm^3). […] The tumor sizes were measured with calipers three times a week. […]

orthotopic 4T1 tumors = assay: Tumor growth reduction study, orthotopic 4T1 breast tumor model; format: in vivo, mouse; details: BALB/c mice, orthotopic 4T1, treatment from 1 day after implantation, CPP/pshVEGF CR4, 0.8 mg/kg every other day, three doses, n = 10; Figure 3B
Protocol: as §1, §2, §3, §4

Neuro2a cells [4] = details: CPP/pLuc2 CR3, 0.1 μg pDNA, 4 h at 37 °C in 50% FBS (MQ for controls), then transfection of Neuro2a cells, luciferase read-out; Figure 2A
Protocol: The stability of the CPP/pDNA nanoparticles to degradation and dissociation by components found in serum was assessed by reporter gene expression in cells after 4 hours incubation of CPP/pLuc2 complexes with 50% FBS. Complexes were formed as described previously, with 0.1 μg pDNA (CR 3), and incubated at room temperature for 40 minutes. After this, FBS (or MQ for controls) was added to the complexes, and the mixture incubated at 37°C for 4 hours (final FBS concentration 50%). For transfection, 1 × 10^4 Neuro2a cells were seeded to transparent 96‐well plates in supplemented DMEM media 24 hours before experiment. On the day of the experiment, the cells were transfected and luciferase expression analyzed as described in previous section (In vitro transfection).

[5] = Heparin displacement assay (PicoGreen); format: physicochemical; details: CPP/pLuc2 CR3, 0.1 μg pDNA per well, MQ water, heparin 30 min 37 °C, 100% = naked pDNA, Figure 2B
Protocol: Accessibility of pDNA in complexes formed between pDNA and CPPs was assessed by Quant‐iT™ PicoGreen® (Thermo Fisher Scientific) assay in mQ water. CPP/pLuc2 nanoparticles at CR3 were prepared as described previously, and transferred to black 96 well plates (0.1 μg of pDNA per well). Heparin solution was added into the wells and incubated at 37°C for 30 minutes. For detection, PicoGreen® was added to the wells, and incubated for 20 minutes. Fluorescence was measured by fluorimeter (λex = 492 nm, λem = 535 nm) (SynergyMx, BioTek).

tumors = details: systemic reporter gene plasmid delivery; cited from earlier work
From the text: In a previous paper MMP‐activatable CPPs PepFect144 (PF144), PepFect145 (PF145), and PepFect146 (PF146) were designed, where the cell penetration ability of the CPPs was reversibly masked by attaching a PEG molecule to the C‐terminus of the peptides via an MMP‐2/‐9 cleavable linker. […] Although plasmid DNA has been successfully used in combination with small molecule therapeutics,31, 32 achieving a clinical effect by plasmid delivery ...

active human recombinant MMP-2 enzyme, sequence (P08253 110-660): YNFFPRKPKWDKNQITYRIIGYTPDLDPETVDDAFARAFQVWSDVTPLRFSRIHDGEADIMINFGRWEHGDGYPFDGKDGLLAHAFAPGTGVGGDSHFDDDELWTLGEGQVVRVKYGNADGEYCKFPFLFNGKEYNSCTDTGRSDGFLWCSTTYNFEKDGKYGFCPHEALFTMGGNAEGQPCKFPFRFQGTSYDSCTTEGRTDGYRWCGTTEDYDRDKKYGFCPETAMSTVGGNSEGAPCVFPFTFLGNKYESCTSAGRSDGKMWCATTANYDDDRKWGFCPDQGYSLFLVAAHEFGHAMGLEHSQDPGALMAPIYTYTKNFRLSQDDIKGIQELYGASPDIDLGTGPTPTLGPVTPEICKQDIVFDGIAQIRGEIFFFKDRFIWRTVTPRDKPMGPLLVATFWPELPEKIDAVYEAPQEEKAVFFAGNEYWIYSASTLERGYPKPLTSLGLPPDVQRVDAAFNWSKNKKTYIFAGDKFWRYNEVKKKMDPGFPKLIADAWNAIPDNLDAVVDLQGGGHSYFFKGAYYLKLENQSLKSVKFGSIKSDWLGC

With “C*RGDKGPDC*‐NH2 (disulfide) [iRGD, tumor‐homing peptide, αvβ3 integrin targeting ligand, reference compound]” as the substance, how does the “luciferase levels in tissues on coadministration of standalone iRGD with CPP/pLuc2 nanoparticles” value ([1]; iRGD coadministered (molar amount equal to that of PF14) with PF144 or PF145 nanoparticles, iv, CR4, 0.8 mg/kg plasmid, 24 h, Figure 1C) read?
The value was “high luciferase levels in spleen; also recorded: high reporter gene expression in the spleen”.

Which results are given for “Stearyl‐AGYLLGKLLOOLAAAALOOLL‐X‐LALGPG‐PEG1000‐C*RGDKGPDC*‐NH2 (disulfide) [PF148‐iRGD]”?
cleavability of the MMP-2 sensitive linker by the MMP-2 enzyme [2]: resistant to MMP‐2 degradation; transfection efficiency after incubation with MMP-2 enzyme (enzyme-dependent activation) (Neuro2a cells [3]): no enzyme‐dependent activation; effect on tumor growth, HT1080 model (sc HT1080 tumors): no effect on tumor size; effect on tumor growth, 4T1 model (orthotopic 4T1 tumors): no effect on tumor size; tumor specificity of reporter gene induction (luciferase levels in tissues) ([1]; Figure 1C): unable to induce luciferase expression in any tissue

With “Stearyl‐AGYLLGKLLOOLAAAALOOLL‐X‐PLGLAG‐PEG600‐C*RGDKGPDC*‐NH2 (disulfide) [PF144‐iRGD, iRGD‐functionalized PF144]” as the substance, how does the “transfection efficiency after incubation with MMP-2 enzyme (enzyme-dependent activation)” value (Neuro2a cells [3]) read?
Its value is “fully restored to the level of PF14”.

And the “tumor specificity of reporter gene induction (luciferase levels in tissues)” value ([1]; Figure 1C)?
Its value is “decreased the tumor specificity; also recorded: reduction in tumor specificity”.

For “Stearyl‐AGYLLGKLLOOLAAAALOOLL‐X‐PLGLAG‐PEG600‐NH2 [PF144]”, which “sensitivity of CPP/pDNA nanoparticles to serum treatment (transfection efficiency before and after FBS)” value (Neuro2a cells [4]) is on record?
The value was “highest stability to serum and heparin treatment out of all the PEGylated peptides”.

And the “resistance of pDNA in complexes to heparin displacement (relative PicoGreen fluorescence)” value [5]?
Its value is “significantly more resistant to heparin treatment than other PEGylated CPPs tested”.

What about the “tissue/tumor specificity of plasmid DNA delivery in vivo” value (tumors) of the same substance?
Its value is “efficient tumor specificity; also recorded: successful in mediating tumor‐specific gene delivery”.

With “Stearyl‐AGYLLGKLLOOLAAAALOOLL‐X‐PLGLAG‐PEG1000‐C*RGDKGPDC*‐NH2 (disulfide) [PF145‐iRGD, iRGD‐functionalized PF145]” as the substance, how does the “transfection efficiency after incubation with MMP-2 enzyme (enzyme-dependent activation)” value (Neuro2a cells [3]) read?
The value was “fully restored to the level of PF14”.

What about the “effect on tumor growth, HT1080 model” value (sc HT1080 tumors) of the same substance?
The value was “did not translate into efficient tumor treatment”.

What about the “effect on tumor growth, 4T1 model” value (orthotopic 4T1 tumors) of the same substance?
The value was “performs worse than PF144”.

What about the “reporter gene induction at different PEGylation rates” value ([1]; PF145-iRGD/pLuc2 CR4, 20 µg, PEGylation rates 40%, 50%, 70% (rest PF14), iv, 24 h, N=3 per group, Figure S2) of the same substance?
Its value is 50% being the most effective of the three.

What about the “tumor specificity of reporter gene induction (luciferase levels in tissues)” value ([1]; Figure 1C) of the same substance?
Its value is “preserved its tumor specificity; also recorded: minimal luciferase induction in healthy tissues”.

For “Stearyl‐AGYLLGKLLOOLAAAALOOLL‐X‐PLGLAG‐PEG1000‐NH2 [PF145]”, which “sensitivity of CPP/pDNA nanoparticles to serum treatment (transfection efficiency before and after FBS)” value (Neuro2a cells [4]) is on record?
The value was “lowest transfection efficiency after serum treatment”.

And the “tissue/tumor specificity of plasmid DNA delivery in vivo” value (tumors)?
The value was “successful in mediating tumor‐specific gene delivery”.
